Test [1] relates to BE(2)-M17 (M17) cells. Nature of the test: Method I: Measurement of Fe efflux from cells (57Fe-loaded, ICP-MS of media). It counts as cell-based, human. Particulars: M17 cells loaded with 20 μM 57Fe, compound 20 μM, 2 h; for activation at 20 µM: Homo sapiens, read-out: Fe-Efflux (% increase of Fe in media relative to cell media in the absence of the compound). The protocol: Method I: Measurement of Fe Efflux from Cells
Compounds of the current invention were assessed for their ability to efflux iron (Fe) from a cell using the following protocol.
The human neuroblastoma line BE(2)-M17 (M17) cell cultures were acquired from Sigma Aldrich (Catalogue #: 95011816). M17 Cells were maintained in Opti-MEM reduced serum media supplemented with 10% fetal bovine serum (Bovogen, SFBSF) and passaged twice weekly. Cells were cultured at 37° C. in the presence of 5% CO2. Culture supplies were sourced from Thermo Fisher unless otherwise stated.
A solution of ^57Fe cold isotope was prepared by dissolving ^57Fe metal (>95% enrichment, Trace Sciences International) in concentrated HCl to give a final concentration of 573 mM. From this master solution, a 10 mM working solution was prepared in sterile water. The working solution was used within two months of preparation.
M17 cells were loaded with iron initially by seeding into 48-well plates at a density of 0.15×10^6 cells per well in 0.5 mL media. After 48 h, old media was discarded. Fresh media was supplemented with 20 μM ^57Fe isotope, from the 10 mM ^57Fe working solution. Cells received 0.2 mL of this ^57Fe enriched media and were returned to the incubator for 20 h. The ability of experimental compounds to efflux iron was determined by the dissolution of compounds in DMSO and diluted in Hanks' Balanced Salt Solution (HBSS) for treatment of M17 cells. After ^57Fe incubation, cells were rinsed twice with HBSS and treated with 0.15 mL trial compound for 2 h at a concentration of 20 μM. All assays included a relevant vehicle (0.4%-0.8% DMSO) as well as a positive control (20 μM). Following the treatment period, 0.1 mL of media was collected from cells and the extracellular ^57Fe content was analysed via inductively coupled mass spectrometry (ICP-MS, Agilent 7700x series instrument).
To perform this protocol the following supplies were purchased from Sigma Aldrich: anhydrous dimethyl sulfoxide (DMSO, Catalogue #: 276855), Hanks' Balanced Salt Solution supplemented with 20 mM HEPES and 4.2 mM Sodium Bicarbonate (HBSS, pH: 7.4, Catalogue #: H1387).
After 2 h the Fe levels in the media were measured and the increase determined as a percentage increase relative to the cell media in the absence of the compound.
Representative data is provided in Table 13 where the % Fe efflux for the specified compounds of the invention lie in the following ranges: A<30%, B 30-100%, C 100-150%; D>150%.

Test [2] has as its system phospho-GSK-3β. Kind of test: GSK 3b assay: Zn ionophore-enhanced phosphorylation of GSK-3β (AlphaScreen SureFire Phospho-GSK 3β (Ser9) kit) in SH-SY5Y cells. It counts as cell-based, human. To be noted: test compound 2 μM + ZnCl2 5 μM, 2 h at 37° C. The protocol: The phosphorylation of GSK-3β is enhanced when Zn is imported into a cell by a Zn ionophore. This property was measured for the compounds of the current invention and the data presented relative to the know Zn ionophore PBT2 using the following protocol.
The human neuroblastoma SH-SY5Y cells were obtained from Cell bank Australia (Catalogue number: 94030304). SH-SY5Y cell culture was maintained in DMEM/F12+15% FBS inside an incubator at 37° C. in the presence of 5% CO2. The cells were sub-cultured once a week and the media exchanged once during the week. Cells for the assay were plated at a density of 60,000 cells/well.
Stock solutions of the samples were prepared as a 5 mM stock in DMSO and a stock solution of 1 mM ZnCl2/3 mM Glutamic acid was prepared in water. Immediately before use the compounds were diluted 1:10 with water before being added to Locke's buffer in a treatment tube. Samples were subsequently treated with either distilled water or the ZnCl2/Glutamic acid solution to yield a treatment solution which has a final concentration of the test compound at 2 μM+/−ZnCl2 at 5 μM.
The culture media was aspirated from the wells and the media replaced with the treatment solution prepared above. In addition to the relative standard (PBT2+/−ZnCl2), control wells were also included consisting of +/−ZnCl2 at 5 μM with all treatments done in triplicate. The plate was incubated at 37° C. with the treatment solution for 2 h after which time the wells were aspirated and washed with sterile PBS.
Measurement of the change of phospho-GSK-3β was determined using an AlphaScreen® SureFire® Phospho-GSK […] (Ser9) Kit with the cells being processed as per the manufacturer's instructions using an initial incubation of 2 h/24° C. and a final incubation of 16 h/24° C.
The fluorescence was measured on an Enspire plate reader. […] Representative data is presented in Table 12 using the following ranges: A<50%, B 50-<100%, C 100-<150%, D>150%.

Consider `Cc1ccc(C(=O)N/N=C/c2nccn2C)cn1` [Compound 117], for which, in test [1], the activation at 20 µM is under 30%.

Take `O=C(N/N=C1\CCOc2cccnc21)c1cccnc1` [Compound 171, (E)-N′-(2,3-dihydro-4H-pyrano[3,2-b]pyridin-4-ylidene)nicotinohydrazide]: the activation at 20 µM in test [1] was under 30%.

Take `CCOc1ccccc1C(=O)N/N=C1\CCCc2cccnc21` [Compound 4]: the “GSK-Zn (signal as % of the positive standard PBT2+ZnCl2)” value in test [2] was “A (A<50%)”. Besides, the activation at 20 µM in test [1] lay within 30 to 100%.

Turning to `COc1ccc(C(=O)N/N=C2\CCCc3cccnc32)cc1` [Compound 9], in test [2], the “GSK-Zn (signal as % of the positive standard PBT2+ZnCl2)” value is reported as “A (A<50%)”. For the same molecule, the activation at 20 µM in test [1] lay in the range of 30 to 100%. On the same counts, the results for `O=C(N/N=C1\CCCc2cccnc21)c1cccnc1` [Compound 1, (E)-N′-(6,7-Dihydroquinolin-8(5H)-ylidene)nicotinohydrazide] are “A (A<50%)” and over 150%. On the same counts, the results for `O=C(N/N=C1\CCCc2cccnc21)c1ccccc1Cl` [Compound 15] are “D (D>150%)” and over 150%. On the same counts, the results for `O=C(N/N=C1\CCCc2cccnc21)c1ccccn1` [Compound 2] are “A (A<50%)” and 100 to 150%. Consider `O=C(N/N=C1\CCCc2cccnc21)c1ccccc1OCCN1CCCCC1` [Compound 40], for which the activation at 20 µM in test [1] was over 150%. Same read-out and setting: the figure for `Cc1cc(C(=O)N/N=C2\CCCc3cccnc32)no1` [Compound 33] is over 150%.

As to `COc1cccc(C(=O)N/N=C(\C)c2ncccn2)c1` [Compound 47], the “GSK-Zn (signal as % of the positive standard PBT2+ZnCl2)” value in test [2] is given as “C (C 100-<150%)”. Besides, the activation at 20 µM in test [1] is 30 to 100%. On to `CCOC(=O)C1CCc2cccnc2/C1=N/NC(=O)c1snnc1C` (centres unmarked) [Compound 31], for which the activation at 20 µM in test [1] was 30 to 100%. The same measure, in the same setting: as for `Cc1nnsc1C(=O)N/N=C1\CCOc2cccnc21` [Compound 172], the figure is 100 to 150%. Regarding `CN(C)CCOc1ccccc1C(=O)N/N=C1\CCCc2cccnc21.Cl` [Compound 39], the “GSK-Zn (signal as % of the positive standard PBT2+ZnCl2)” value in test [2] is “A (A<50%)”. Also, the activation at 20 µM in test [1] was over 150%.

For `O=C(N/N=C1\CCCc2cccnc21)c1ccccc1OCCCN1CCCCC1` [Compound 42], in test [1], the activation at 20 µM was over 150%. Still for that read-out and setting: the figure for `COc1ccccc1C(=O)N/N=C(\C)c1cc(C)ccn1` [Compound 55] is 30 to 100%. As for `COc1ccc(C(=O)N/N=C2\CCCc3cccnc32)cc1OC` [Compound 7], the “GSK-Zn (signal as % of the positive standard PBT2+ZnCl2)” value in test [2] is reported as “A (A<50%)”. The activation at 20 µM in test [1] was 30 to 100%. `COC(=O)CN(/N=C(\C)c1ccccn1)C(=O)c1cc2ccccc2s1` [Compound 147, (E)-Methyl 2-(1-(benzo[b]thiophene-2-carbonyl)-2-(1-(pyridin-2-yl)ethylidene) hydrazinyl) Acetate]: the “Fe-Efflux (% increase of Fe in media relative to cell media in the absence of the compound)” value in test [1] is recorded as “A (A<30%)”. Turning to `C/C(=N\NC(=O)c1snnc1C)c1ccc2ccccc2n1` [Compound 91], in test [2], the “GSK-Zn (signal as % of the positive standard PBT2+ZnCl2)” value is listed as “C (C 100-<150%)”. The activation at 20 µM in test [1] is 30 to 100%. As to `COc1ccccc1C(=O)N/N=C1\CCCc2cccnc21` [Compound 8], the “GSK-Zn (signal as % of the positive standard PBT2+ZnCl2)” value in test [2] was “A (A<50%)”. Moreover, the activation at 20 µM in test [1] lay in the range of 100 to 150%. `C/C(=N\NC(=O)c1snnc1C)c1ncccn1` [Compound 48]: in test [2], the “GSK-Zn (signal as % of the positive standard PBT2+ZnCl2)” value is recorded as “C (C 100-<150%)”. In test [1], the activation at 20 µM is over 150%.

In the case of `C/C(=N\NC(=O)c1cccc(C)c1)c1ncccn1` [Compound 49], in test [2], the “GSK-Zn (signal as % of the positive standard PBT2+ZnCl2)” value is “B (B 50-<100%)”. Moreover, the activation at 20 µM in test [1] was over 150%. On to `O=C(N/N=C1\CCOc2cccnc21)c1cccs1` [Compound 178], for which the activation at 20 µM in test [1] lay within 100 to 150%. Take `COc1cccc(C(=O)N/N=C2\CCCc3cccnc32)c1` [Compound 6]: the “GSK-Zn (signal as % of the positive standard PBT2+ZnCl2)” value in test [2] was “A (A<50%)”. Moreover, in test [1], the activation at 20 µM is under 30%. With `C/C(=N\NC(=O)c1snnc1C)c1nccnc1C` [Compound 57], the activation at 20 µM in test [1] lay in the range of 100 to 150%. With `C/C(=N\NC(=O)c1cc2c(s1)-c1ccccc1OC2)c1nc(C)cs1` [Compound 101], the activation at 20 µM in test [1] was under 30%. Still for that read-out and setting: the figure for `O=C(N/N=C/c1cn2ccccc2n1)c1cc2ccccc2s1` [Compound 138] is under 30%; for `C/C(=N\NC(=O)c1cccc(C)c1)c1nccnc1C` [Compound 58] it is under 30%. On to `O=C(N/N=C1\CCCc2cccnc21)c1ccncc1` [Compound 3], for which, in test [2], the “GSK-Zn (signal as % of the positive standard PBT2+ZnCl2)” value is “A (A<50%)”. In addition, the activation at 20 µM in test [1] is over 150%. On the same counts, the results for `Cc1nnsc1C(=O)N/N=C(/c1ncccn1)C(C)C` [Compound 52] are “B (B 50-<100%)” and 30 to 100%. On the same counts, the results for `Cc1cccc(C(=NNC(=O)c2ccccc2C)c2cccc(C)n2)n1` [Compound 122] are “A (A<50%)” and under 30%.

Consider `O=C(N/N=C1\CCCc2cccnc21)c1ccccc1` [Compound 10], for which the “GSK-Zn (signal as % of the positive standard PBT2+ZnCl2)” value in test [2] is “B (B 50-<100%)”. Moreover, the activation at 20 µM in test [1] is 30 to 100%. Consider `Cc1nc(C)c(C(=O)N/N=C2\CCCc3cccnc32)s1` [Compound 32], for which the activation at 20 µM in test [1] fell in the range of 100 to 150%.

Regarding `COc1cccc(C(=O)N/N=C(/c2ncccn2)C(C)C)c1` [Compound 50], the “GSK-Zn (signal as % of the positive standard PBT2+ZnCl2)” value in test [2] is “C (C 100-<150%)”. Further, the activation at 20 µM in test [1] is under 30%. On the same counts, the results for `Cc1nnsc1C(=O)N/N=C1\CCCc2cccnc21` [Compound 23] are “C (C 100-<150%)” and over 150%.

Source of the values: patent US11603364B2, “Acyl hydrazone derivative compounds for treating disease” (Alterity Therapeutics Limited, priority 2020, dated 2023).
